Data taken from PubChem BioAssay AID1259407 (Chemical Carcinogenesis Research Information System (CCRIS), 2018).
Active and inactive are the calls of the source. The rule behind the calls is not given here.

Test system: CCRIS mutagenicity, Ames/micronucleus/aberration tests
Experiment: CCRIS mutagenicity studies
[1] = Test System: AMES SALMONELLA TYPHIMURIUM, Strain/Indicator: TA98, Metabolic Activation: HAMSTER, LIVER, S-9, AROCLOR 1254 (30%), Method: PREINCUBATION
[2] = Test System: AMES SALMONELLA TYPHIMURIUM, Strain/Indicator: TA98, Metabolic Activation: NONE, Method: PREINCUBATION
[3] = Test System: AMES SALMONELLA TYPHIMURIUM, Strain/Indicator: TA98, Metabolic Activation: RAT, LIVER, S-9, AROCLOR 1254 (30%), Method: PREINCUBATION
[4] = Test System: AMES SALMONELLA TYPHIMURIUM, Strain/Indicator: TA100, Metabolic Activation: HAMSTER, LIVER, S-9, AROCLOR 1254 (30%), Method: PREINCUBATION
[5] = Test System: AMES SALMONELLA TYPHIMURIUM, Strain/Indicator: TA100, Metabolic Activation: NONE, Method: PREINCUBATION
[6] = Test System: AMES SALMONELLA TYPHIMURIUM, Strain/Indicator: TA100, Metabolic Activation: RAT, LIVER, S-9, AROCLOR 1254 (30%), Method: PREINCUBATION
[7] = Test System: AMES SALMONELLA TYPHIMURIUM, Strain/Indicator: TA98, Metabolic Activation: HAMSTER, LIVER, S-9, AROCLOR 1254 (10%), Method: PREINCUBATION
[8] = Test System: AMES SALMONELLA TYPHIMURIUM, Strain/Indicator: TA98, Metabolic Activation: RAT, LIVER, S-9, AROCLOR 1254 (10%), Method: PREINCUBATION
[9] = Test System: AMES SALMONELLA TYPHIMURIUM, Strain/Indicator: TA100, Metabolic Activation: HAMSTER, LIVER, S-9, AROCLOR 1254 (10%), Method: PREINCUBATION
[10] = Test System: AMES SALMONELLA TYPHIMURIUM, Strain/Indicator: TA100, Metabolic Activation: RAT, LIVER, S-9, AROCLOR 1254 (10%), Method: PREINCUBATION
[11] = Test System: AMES SALMONELLA TYPHIMURIUM, Strain/Indicator: TA1535, Metabolic Activation: HAMSTER, LIVER, S-9, AROCLOR 1254 (10%), Method: PREINCUBATION
[12] = Test System: AMES SALMONELLA TYPHIMURIUM, Strain/Indicator: TA1535, Metabolic Activation: NONE, Method: PREINCUBATION
[13] = Test System: AMES SALMONELLA TYPHIMURIUM, Strain/Indicator: TA1535, Metabolic Activation: RAT, LIVER, S-9, AROCLOR 1254 (10%), Method: PREINCUBATION
[14] = Test System: AMES SALMONELLA TYPHIMURIUM, Strain/Indicator: TA1537, Metabolic Activation: HAMSTER, LIVER, S-9, AROCLOR 1254 (10%), Method: PREINCUBATION
[15] = Test System: AMES SALMONELLA TYPHIMURIUM, Strain/Indicator: TA1537, Metabolic Activation: RAT, LIVER, S-9, AROCLOR 1254 (10%), Method: PREINCUBATION
[16] = Test System: AMES SALMONELLA TYPHIMURIUM, Strain/Indicator: TA97, Metabolic Activation: NONE, Method: PREINCUBATION

Question: With S=P(N1CC1)(N1CC1)N1CC1 as the compound, how does the mutagenic call [1] read?
Answer: inactive; negative

Question: And the mutagenic call [2]?
Answer: inactive; negative

Question: And the mutagenic call (Test System: AMES SALMONELLA TYPHIMURIUM, Strain/Indicator: TA98, Metabolic Activation: NONE, Method: STANDARD PLATE)?
Answer: inactive; negative

Question: What about the mutagenic call [3] of the same compound?
Answer: inactive; negative

Question: And the mutagenic call [4]?
Answer: active; positive

Question: And the mutagenic call [5]?
Answer: active; positive

Question: What about the mutagenic call (Test System: AMES SALMONELLA TYPHIMURIUM, Strain/Indicator: TA100, Metabolic Activation: NONE, Method: STANDARD PLATE) of the same compound?
Answer: active; positive

Question: And the mutagenic call [6]?
Answer: active; positive

Question: What about the mutagenic call (Test System: AMES SALMONELLA TYPHIMURIUM, Strain/Indicator: TA1535, Metabolic Activation: NONE, Method: STANDARD PLATE) of the same compound?
Answer: active; positive

Question: And the mutagenic call (Test System: AMES SALMONELLA TYPHIMURIUM, Strain/Indicator: TA1537, Metabolic Activation: NONE, Method: STANDARD PLATE)?
Answer: inactive; negative

Question: What about the mutagenic call (Test System: CHINESE HAMSTER V-79, Strain/Indicator: V-79/6-THIOGUANINE, Metabolic Activation: NONE, Method: FLASK ASSAY) of the same compound?
Answer: inactive; negative

Question: What about the mutagenic call (Test System: E. COLI, Strain/Indicator: WP2 (HCR), Metabolic Activation: NONE, Method: STANDARD PLATE) of the same compound?
Answer: active; positive

Question: How did the mutagenic call [7] turn out when C=C(C)C(=O)OCCC was run?
Answer: inactive; negative

Question: And the mutagenic call [2]?
Answer: inactive; negative

Question: What about the mutagenic call [8] of the same compound?
Answer: inactive; negative

Question: What about the mutagenic call [9] of the same compound?
Answer: inactive; negative

Question: What about the mutagenic call [5] of the same compound?
Answer: inactive; negative

Question: And the mutagenic call [10]?
Answer: inactive; negative

Question: What about the mutagenic call [11] of the same compound?
Answer: inactive; negative

Question: And the mutagenic call [12]?
Answer: inactive; negative

Question: What about the mutagenic call [13] of the same compound?
Answer: inactive; negative

Question: And the mutagenic call [14]?
Answer: inactive; negative

Question: What about the mutagenic call (Test System: AMES SALMONELLA TYPHIMURIUM, Strain/Indicator: TA1537, Metabolic Activation: NONE, Method: PREINCUBATION) of the same compound?
Answer: inactive; negative

Question: What about the mutagenic call [15] of the same compound?
Answer: inactive; negative

Question: Cc1ccc(N(C)C)cc1 was tested. Which mutagenic call (Test System: AMES SALMONELLA TYPHIMURIUM, Strain/Indicator: TA97, Metabolic Activation: HAMSTER, LIVER, S-9, AROCLOR 1254 (10 OR 30%), Method: PREINCUBATION) did it give?
Answer: inactive; negative

Question: And the mutagenic call [16]?
Answer: inactive; negative

Question: And the mutagenic call (Test System: AMES SALMONELLA TYPHIMURIUM, Strain/Indicator: TA97, Metabolic Activation: RAT, LIVER, S-9, AROCLOR 1254 (10 OR 30%), Method: PREINCUBATION)?
Answer: inactive; negative

Question: What about the mutagenic call (Test System: AMES SALMONELLA TYPHIMURIUM, Strain/Indicator: TA98, Metabolic Activation: HAMSTER, LIVER, S-9, AROCLOR 1254 (10 OR 30%), Method: PREINCUBATION) of the same compound?
Answer: inactive; negative

Question: And the mutagenic call [2]?
Answer: inactive; negative

Question: What about the mutagenic call (Test System: AMES SALMONELLA TYPHIMURIUM, Strain/Indicator: TA98, Metabolic Activation: RAT, LIVER, S-9, AROCLOR 1254 (10 OR 30%), Method: PREINCUBATION) of the same compound?
Answer: inactive; negative

Question: And the mutagenic call (Test System: AMES SALMONELLA TYPHIMURIUM, Strain/Indicator: TA100, Metabolic Activation: HAMSTER, LIVER, S-9, AROCLOR 1254 (10 OR 30%), Method: PREINCUBATION)?
Answer: inactive; negative

Question: What about the mutagenic call [5] of the same compound?
Answer: inactive; negative

Question: And the mutagenic call (Test System: AMES SALMONELLA TYPHIMURIUM, Strain/Indicator: TA100, Metabolic Activation: RAT, LIVER, S-9, AROCLOR 1254 (10 OR 30%), Method: PREINCUBATION)?
Answer: inactive; negative

Question: What about the mutagenic call (Test System: AMES SALMONELLA TYPHIMURIUM, Strain/Indicator: TA1535, Metabolic Activation: RAT, LIVER, S-9, AROCLOR 1254 (5%), Method: STANDARD PLATE) of the same compound?
Answer: active; positive

Question: And the mutagenic call (Test System: AMES SALMONELLA TYPHIMURIUM, Strain/Indicator: TA1535, Metabolic Activation: RAT, LIVER, S-9, AROCLOR 1254 (5,10%), Method: PREINCUBATION)?
Answer: active; positive

Question: What about the mutagenic call (Test System: MOUSE LYMPHOMA, Strain/Indicator: L5178Y (TK+/TK-), Metabolic Activation: NONE, Method: SUSPENSION/PLATE) of the same compound?
Answer: active; positive. reevaluation of results: equivocal

Question: And the mutagenic call (Test System: MOUSE LYMPHOMA, Strain/Indicator: L5178Y (TK+/TK-), Metabolic Activation: RAT, LIVER, S-9, AROCLOR 1254, Method: SUSPENSION/PLATE)?
Answer: active; positive. reevaluation of results: positive

Question: What does the source list for O=C1c2ccccc2C(=O)C1(O)O?
Answer: mutagenic call (Test System: AMES SALMONELLA TYPHIMURIUM, Strain/Indicator: TA97, Metabolic Activation: HAMSTER, LIVER, S-9, AROCLOR 1254 (10%), Method: PREINCUBATION): inactive; negative; mutagenic call (Test System: AMES SALMONELLA TYPHIMURIUM, Strain/Indicator: TA97, Metabolic Activation: HAMSTER, LIVER, S-9, AROCLOR 1254 (30%), Method: PREINCUBATION): inactive; negative; mutagenic call [16]: inactive; negative; mutagenic call (Test System: AMES SALMONELLA TYPHIMURIUM, Strain/Indicator: TA97, Metabolic Activation: RAT, LIVER, S-9, AROCLOR 1254 (10%), Method: PREINCUBATION): inactive; negative; mutagenic call (Test System: AMES SALMONELLA TYPHIMURIUM, Strain/Indicator: TA97, Metabolic Activation: RAT, LIVER, S-9, AROCLOR 1254 (30%), Method: PREINCUBATION): inactive; negative; mutagenic call [7]: inactive; negative; mutagenic call [1]: inactive; negative; mutagenic call [2]: inactive; negative; mutagenic call [8]: inactive; negative; mutagenic call [3]: inactive; negative; mutagenic call [9]: inactive; negative; mutagenic call [4]: inactive; negative; mutagenic call [5]: inactive; negative; mutagenic call (Test System: AMES SALMONELLA TYPHIMURIUM, Strain/Indicator: TA100, Metabolic Activation: RAT, LIVER, S-9, AROCLOR 1254 (5%), Method: PREINCUBATION): inactive; negative; mutagenic call [10]: inactive; negative; mutagenic call [6]: inactive; negative; mutagenic call [11]: inactive; negative; mutagenic call (Test System: AMES SALMONELLA TYPHIMURIUM, Strain/Indicator: TA1535, Metabolic Activation: HAMSTER, LIVER, S-9, AROCLOR 1254 (30%), Method: PREINCUBATION): inactive; negative; mutagenic call [12]: inactive; negative; mutagenic call [13]: inactive; negative; mutagenic call (Test System: AMES SALMONELLA TYPHIMURIUM, Strain/Indicator: TA1535, Metabolic Activation: RAT, LIVER, S-9, AROCLOR 1254 (30%), Method: PREINCUBATION): inactive; negative; mutagenic call [14]: inactive; negative; mutagenic call (Test System: AMES SALMONELLA TYPHIMURIUM, Strain/Indicator: TA1537, Metabolic Activation: HAMSTER, LIVER, S-9, AROCLOR 1254 (30%), Method: PREINCUBATION): inactive; negative; mutagenic call [15]: inactive; negative; mutagenic call (Test System: AMES SALMONELLA TYPHIMURIUM, Strain/Indicator: TA1537, Metabolic Activation: RAT, LIVER, S-9, AROCLOR 1254 (30%), Method: PREINCUBATION): inactive; negative
